Laboratory results taken from ChEMBL document CHEMBL1671825, “Synthesis and in Vitro and in Vivo Evaluation of Phosphoinositide-3-kinase Inhibitors” (ACS Med Chem Lett, 2011).

Key:
Type in all cases: ADME, organism-based
[1] = Half life in rat at 5 mg/kg, iv; set-up: dose 5 mg/kg, route intravenous; conditions: in vivo
[2] = Clearance in rat at 5 mg/kg, iv and 20 mg/kg, po; conditions: in vivo
[3] = AUC in rat at 20 mg/kg, po; set-up: dose 20 mg/kg, route oral; conditions: plasma
[4] = Volume of distribution at steady state in rat at 5 mg/kg, iv and 20 mg/kg, po; conditions: in vivo, read-out: Vdss
[5] = Oral bioavailability in rat at 20 mg/kg; conditions: in vivo
[6] = Half life in mouse at 10 mg/kg, po; set-up: dose 10 mg/kg, route oral; conditions: in vivo
[7] = Oral bioavailability in mouse at 10 mg/kg; conditions: in vivo
[8] = Clearance in mouse at 5 mg/kg, iv and 10 mg/kg, po; conditions: in vivo
[9] = Volume of distribution at steady state in mouse at 5 mg/kg, iv and 10 mg/kg, po; conditions: in vivo, read-out: Vdss
[10] = AUC in mouse at 10 mg/kg, po; set-up: dose 10 mg/kg, route oral; conditions: plasma

| SMILES | half-life [1] [min] | clearance [2] [mL/min/kg] | AUC [3] [µM·h] | Vd [4] [L/kg] | bioavailability [5] [%] | half-life [6] [min] | bioavailability [7] [%] | clearance [8] [mL/min/kg] | Vd [9] [L/kg] | AUC [10] [µM·h] |
| --- | --- | --- | --- | --- | --- | --- | --- | --- | --- | --- |
| Oc1cccc(-c2cc(Nc3cnc4ccccc4c3)nc(N3CCOCC3)n2)c1 | 30 | 179 | 0.03 | 6.9 | 1 |  |  |  |  |  |
| c1cncc(-c2cc(Nc3cnc4ccccc4c3)nc(N3CCOCC3)n2)c1 | 55 | 26 | 16 | 2.4 | 46 |  |  |  |  |  |
| Nc1ccc(-c2cc(Nc3cnc4ccccc4c3)nc(N3CCOCC3)n2)cn1 | 103 | 5 | 93 | 0.8 | 56 |  |  |  |  |  |
| Nc1ncc(-c2cc(Nc3cnc4ccccc4c3)nc(N3CCOCC3)n2)cn1 | 43 | 37 | 6 | 1.9 | 23 |  |  |  |  |  |
| COc1ccc(Nc2cc(-c3cnc(N)nc3)nc(N3CCOCC3)n2)cn1 |  |  |  |  |  | 282 | 87 | 99 | 1.1 | 2 |
